In US20260275242A1, “PHOSPHONATE-FREE CHELATING AGENTS AND METHODS FOR FABRIC CARE” (THE PROCTER & GAMBLE COMPANY, priority 2023, published 2026):

Assays:
Format in all cases: physicochemical
[1] = Calcium binding efficiency, logK(β110) (Table 1); details: one metal, one ligand, no protons
Text: (§1) The binding efficiencies may be expressed as a binding constant. A binding constant (also called formation constant or stability constant) is an equilibrium constant for the formation of a complex in solution. It is a measure of the strength of the interaction between the reagents that come together to form the complex. As an example, various stains may comprise catechins as shown in Formula (13).
(§2) In Table 1, the reaction between metals and ligands is described in terms of log K(β110). In this context, K, is the equilibrium constant for the reaction between ligands and metals. The higher K, the more metal is bound. This is illustrated in the following example.
(§3) β, represents the binding efficiency and receives some subscripts (βmlh) to indicate how many metals (m), ligands (l), and protons (h) respectively are involved.

[2] = pKa of chelating agents (Table 1); details: successive pKa values; (A)/(B) printed beside the catechin values
Text: Chelation is a type of bonding of ions and molecules to metal ions. It involves the formation or presence of two or more separate coordinate bonds between a ligand and a metal atom. Without being bound by theory, the stain removal effectiveness of a composition comprising one or more chelating agents may depend at least in part on the ability of the chelating agent(s) to bind to iron, which may be present in some stains, such as fruit or beverage stains. Several factors may impact a chelating agent's ability to bind to iron. These factors may include the pKa of the chelating agent compared to the wash pH, and the affinity of the chelating agent to bind with other metals, materials, or compositions in the wash.
Various embodiments may provide or employ a composition that comprises one or more chelating agents having a pKa that is near to or less than the wash pH. […] Various embodiments may also employ a wash liquor pH of about 10 or less, about 9.5 or less, less than about 9, preferably from about 6.5 to about 8.5, most preferably from about 7.0 to about 8.5. They may also include the step of maintaining the pH of the wash liquor at about 10 or less, about 9.5 or less, less than about 9, preferably from about 6.5 to about 8.5, most preferably from about 7.0 to about 8.5.

[3] = Iron binding efficiency, logK(β110) (Table 1); details: one metal, one ligand, no protons
Text: as §1, §2, §3

Ca^2+ logK(β110) [1] | pKa [2] | Fe (III) logK(β110) [3] | Compound
6.7 | 8.7 | 14.7 | CCOC(=O)c1cc(O)c(O)c(O)c1 [Ethyl Gallate]
6.7 | 8.7 | 14.7 | COC(=O)c1cc(O)c(O)c(O)c1 [Methyl Gallate]
